{"source": "patent US20240216342A1", "about": "“BLOOD CARNITINE-INCREASING AGENT” (KOWA COMPANY, LTD., priority 2021, published 2024)", "type_in_all_cases": "in vivo, human", "key": {"[1]": {"assay": "Blood free carnitine in a fasting state, compound A given orally to dyslipidemia patients for 4 weeks (Example 1)", "details": "for Ratio of change in free carnitine after administration for 4 weeks with respect to value before administration (at 0 weeks): fasting state, oral", "protocol": "A study was conducted on an action on blood carnitine in oral administration of the compound A to a dyslipidemia patient at 0.2 to 0.8 mg a day for 4 weeks. For the administration of the compound A, an IR preparation (0.2 mg/day, twice a day), 0.4 mg of a CR preparation (once a day) and 0.8 mg of a CR preparation (once a day) were used, and the administration was performed before or after a meal. Table 1 and FIG. 1 show a ratio of change in concentration of free carnitine in blood in a fasting state in administration of the compound A to the dyslipidemia patient for 4 weeks with respect to the value before administration (at 0 weeks) in Example 1."}, "[2]": {"assay": "Blood free carnitine after meal (high-fat food) versus before meal, compound A given to dyslipidemia patients for 4 weeks (Example 1)", "protocol": "A study was conducted on an action on blood carnitine in oral administration of the compound A to a dyslipidemia patient at 0.2 to 0.8 mg a day for 4 weeks. For the administration of the compound A, an IR preparation (0.2 mg/day, twice a day), 0.4 mg of a CR preparation (once a day) and 0.8 mg of a CR preparation (once a day) were used, and the administration was performed before or after a meal. Table 2 and FIG. 2 show a process of an amount of change in free carnitine in blood after meal (after intake of high-fat food) with respect to a value before meal in administration of the compound A to the dyslipidemia patient for 4 weeks in Example 1."}, "[3]": {"assay": "Blood free carnitine in a fasting state, compound A given orally to NAFLD patients for 48 weeks versus placebo (Example 2)", "details": "IR 0.4 mg/day", "protocol": "A study was conducted on an action on blood carnitine in oral administration of the compound A to a non-alcoholic fatty liver disease (NAFLD) patient at 0.4 mg a day for 48 weeks. For the administration of the compound A, an IR preparation (0.4 mg/day, twice a day) was used, and the administration was performed in a fasting state. A comparison was made with placebo administration. Table 3 and FIG. 3 show a process of a ratio of change in concentration of free carnitine in blood in a fasting state in administration of the compound A (IR 0.4 mg/day) to the NAFLD patient for 48 weeks with respect to the value before administration (at 0 weeks) in Example 2."}}}
{"smiles": "CC[C@@H](Oc1cccc(CN(CCCOc2ccc(OC)cc2)c2nc3ccccc3o2)c1)C(=O)O", "note": "[Compound A, (R)-2-[3-[[N-(benzoxazol-2-yl)-N-3-(4-methoxyphenoxy)propyl]aminomethyl]phenoxy]butyric acid]", "values": [{"measurement": "Effect on concentration of free carnitine in blood in a fasting state (in words)", "setting": "[1]; 0.2 to 0.8 mg a day", "value": "increased the concentration of free carnitine in blood in a dose-dependent manner"}, {"measurement": "Ratio of change in free carnitine after administration for 4 weeks with respect to value before administration (at 0 weeks)", "setting": "[1]; CR preparation 0.4 mg/day", "value": 19.5}, {"measurement": "Ratio of change in free carnitine after administration for 4 weeks with respect to value before administration (at 0 weeks)", "setting": "[1]; CR preparation 0.8 mg/day", "value": 23.71}, {"measurement": "Ratio of change in free carnitine after administration for 4 weeks with respect to value before administration (at 0 weeks)", "setting": "[1]; IR preparation 0.2 mg/day", "value": 11.82}, {"measurement": "Effect on concentration of free carnitine in blood after meal compared to before meal (in words)", "setting": "[2]; 0.2 to 0.8 mg a day, 4 weeks", "value": "increased the concentration of free carnitine in blood after meal as compared to the concentration before meal"}, {"measurement": "Amount of change in free carnitine in blood after meal with respect to value before meal, average", "setting": "[2]; CR 0.4 mg/day (QD) for 4 weeks, 1 h after high-fat meal", "value": 2.78, "unit": "µmol/L"}, {"measurement": "Amount of change in free carnitine in blood after meal with respect to value before meal, average", "setting": "[2]; CR 0.4 mg/day (QD) for 4 weeks, 2.5 h after high-fat meal", "value": 2.65, "unit": "µmol/L"}, {"measurement": "Amount of change in free carnitine in blood after meal with respect to value before meal, average", "setting": "[2]; CR 0.4 mg/day (QD) for 4 weeks, 4.5 h after high-fat meal", "value": 2.25, "unit": "µmol/L"}, {"measurement": "Amount of change in free carnitine in blood after meal with respect to value before meal, average", "setting": "[2]; CR 0.8 mg/day (QD) for 4 weeks, 1 h after high-fat meal", "value": 3.11, "unit": "µmol/L"}, {"measurement": "Amount of change in free carnitine in blood after meal with respect to value before meal, average", "setting": "[2]; CR 0.8 mg/day (QD) for 4 weeks, 2.5 h after high-fat meal", "value": 3.26, "unit": "µmol/L"}, {"measurement": "Amount of change in free carnitine in blood after meal with respect to value before meal, average", "setting": "[2]; CR 0.8 mg/day (QD) for 4 weeks, 4.5 h after high-fat meal", "value": 2.92, "unit": "µmol/L"}, {"measurement": "Amount of change in free carnitine in blood after meal with respect to value before meal, average", "setting": "[2]; IR 0.2 mg/day (BID) for 4 weeks, 1 h after high-fat meal", "value": 2.72, "unit": "µmol/L"}, {"measurement": "Amount of change in free carnitine in blood after meal with respect to value before meal, average", "setting": "[2]; IR 0.2 mg/day (BID) for 4 weeks, 2.5 h after high-fat meal", "value": 2.19, "unit": "µmol/L"}, {"measurement": "Amount of change in free carnitine in blood after meal with respect to value before meal, average", "setting": "[2]; IR 0.2 mg/day (BID) for 4 weeks, 4.5 h after high-fat meal", "value": 1.79, "unit": "µmol/L"}, {"measurement": "Time of administration at which the free carnitine increasing action reached the maximum value", "setting": "[3]", "value": 12, "unit": "weeks"}, {"measurement": "Ratio of change in concentration of free carnitine in blood in a fasting state with respect to value before administration (0 weeks), average", "setting": "[3]; 4 weeks", "value": 20.0}, {"measurement": "Ratio of change in concentration of free carnitine in blood in a fasting state with respect to value before administration (0 weeks), average", "setting": "[3]; 12 weeks", "value": 24.7}, {"measurement": "Ratio of change in concentration of free carnitine in blood in a fasting state with respect to value before administration (0 weeks), average", "setting": "[3]; 24 weeks", "value": 24.5}, {"measurement": "Effect on concentration of free carnitine in blood in a fasting state compared to placebo (in words)", "setting": "[3]; 48 weeks", "value": "increased the concentration of free carnitine in blood in a fasting state as compared to placebo administration"}, {"measurement": "Ratio of change in concentration of free carnitine in blood in a fasting state with respect to value before administration (0 weeks), average", "setting": "[3]; 48 weeks", "value": 20.9}]}
